From ChEMBL document CHEMBL1201862, “PubChem BioAssay data set” (2004) come the findings set out here.

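Tested at 5 concentrations; 48 h exposure; 96-well plates; endpoints linearly interpolated, else capped at highest concentration. Here, GI50 denotes the concentration required for 50% inhibition of growth.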 Activity calls are given as the source filed them. Cut-off read from the data, not from the text of the source: active = GI50 up to about 1.1 µM and inactive = higher.

Among the test systems are NCI-H23; K562; COLO 205; OVCAR-4; HCT-15; ACHN; SW-620; SNB-75; Malme-3M; RXF 393; SNB-19; UACC-62; OVCAR-3; SF-268; HL-60; SK-MEL-2; LOX IMVI; NCI-H226.
Assay in all cases: DTP human tumour cell line panel, 48 h

Broadly, the GI50 is the concentration at which growth is held to half of that of the control. `COc1ccc(OC)c(NCC#N)c1`: the GI50 was > 100 µM (inactive) in the assay on NCI-H23; > 100 µM (inactive) in the assay with K562; > 100 µM (inactive) in the assay with COLO 205; > 100 µM (inactive) in the assay on OVCAR-4; over 100 µM in the assay with HCT-15; > 100 µM (inactive) with ACHN. Also, the GI50 in the assay on SW-620, in the assay with SNB-75, in the assay on Malme-3M, with RXF 393, with SNB-19 and in the assay with UACC-62 was > 100 µM (inactive) each time. For the same compound, the GI50 with OVCAR-3, with SF-268, with HL-60, with SK-MEL-2, in the assay on LOX IMVI and in the assay on NCI-H226 was > 100 µM (inactive) throughout.
As to `O=c1oc2c3ccc4ccccc4c3n(CCN3CCCCC3)c2c2ccccc12`, the GI50 in the assay with NCI-H23 is 21.4 µM (inactive); in the assay on K562, 15.1 µM (inactive); in the assay on COLO 205 it was 14.8 µM (inactive); in the assay on OVCAR-4, 23.8 µM (inactive); in the assay with HCT-15, 38.2 µM; in the assay with ACHN, 31.6 µM (inactive). Moreover, the GI50 in the assay on SW-620 is 18.8 µM (inactive); in the assay with SNB-75 it was 4.98 µM (inactive); in the assay with Malme-3M it was 30.3 µM (inactive); in the assay on RXF 393, 14.8 µM (inactive); in the assay on SNB-19 it was 28.8 µM (inactive); in the assay with UACC-62, 36.3 µM (inactive). For the same compound, the GI50 with OVCAR-3 is 18.5 µM (inactive); in the assay with SF-268, 31.4 µM (inactive); in the assay on HL-60, 89.5 µM (inactive); in the assay with SK-MEL-2, 26.5 µM (inactive); in the assay on LOX IMVI it was 31.1 µM (inactive).
With `Cc1ccccc1NC(=O)CSc1nnc(-c2ccc(/N=C\c3ccc(Cl)cc3)cc2)o1`, the GI50 is > 100 µM (inactive) in the assay with NCI-H23; > 100 µM (inactive) in the assay with K562; > 100 µM (inactive) in the assay on COLO 205; > 100 µM (inactive) with OVCAR-4; over 100 µM in the assay on HCT-15; > 100 µM (inactive) in the assay with ACHN. In addition, the GI50 in the assay on SW-620, with SNB-75, with Malme-3M, in the assay with RXF 393, with SNB-19 and in the assay with UACC-62 was > 100 µM (inactive) in each case. In addition, the GI50 with SF-268, with HL-60, in the assay with SK-MEL-2, in the assay with LOX IMVI and in the assay on NCI-H226 was > 100 µM (inactive) throughout.
Regarding `CCOC(=O)C1(Br)C(c2ccccc2)NC(=O)NC1(C)Br` (centres undefined), the GI50 in the assay with NCI-H23 is 67.3 µM (inactive); in the assay with K562 it was 39.8 µM (inactive); in the assay with COLO 205, 65.3 µM (inactive); in the assay on HCT-15, over 100 µM; with ACHN it was > 100 µM (inactive); in the assay on SW-620, 0.332 µM (active). Moreover, the GI50 in the assay on SNB-75 was > 100 µM (inactive); in the assay with Malme-3M, > 100 µM (inactive); in the assay on RXF 393, 25.1 µM (inactive); with SNB-19, 19 µM (inactive); with UACC-62, 52.8 µM (inactive); in the assay on OVCAR-3 it was 62.5 µM (inactive). In addition, the GI50 was > 100 µM (inactive) in the assay with SF-268; 17.9 µM (inactive) in the assay on HL-60; > 100 µM (inactive) with SK-MEL-2; 38.3 µM (inactive) with LOX IMVI; > 100 µM (inactive) in the assay on NCI-H226.
Take `Cc1ccc([N+](=O)[O-])cc1NC(=O)C(=O)Cc1cc(=O)oc2cc(O)ccc12`: the GI50 with NCI-H23 is > 100 µM (inactive); in the assay on K562 it was 46.3 µM (inactive); with COLO 205, 42.8 µM (inactive); in the assay on OVCAR-4, > 100 µM (inactive); in the assay on HCT-15, over 100 µM; in the assay with ACHN it was > 100 µM (inactive). Also, the GI50 was > 100 µM (inactive) in the assay with SNB-75; > 100 µM (inactive) in the assay with Malme-3M; 28.1 µM (inactive) with RXF 393; > 100 µM (inactive) with SNB-19; > 100 µM (inactive) in the assay with UACC-62; > 100 µM (inactive) in the assay with OVCAR-3. Also, the GI50 in the assay with SF-268 is 32 µM (inactive); in the assay with HL-60, > 100 µM (inactive); in the assay with SK-MEL-2, > 100 µM (inactive); in the assay with LOX IMVI, 26.6 µM (inactive); in the assay with NCI-H226, > 100 µM (inactive).
On to `Cc1c(Cl)cccc1NC(=O)CC1C(=O)Nc2ccccc2S1(=O)=O` (centres undefined), for which the GI50 was 18.1 µM (inactive) with NCI-H23; 5.5 µM (inactive) in the assay with K562; 20.5 µM (inactive) with OVCAR-4; 10.3 µM in the assay with HCT-15; 16.5 µM (inactive) in the assay on ACHN; 20 µM (inactive) in the assay on SW-620. Moreover, the GI50 in the assay with SNB-75 was 17.2 µM (inactive); in the assay with Malme-3M it was 17.6 µM (inactive); in the assay with RXF 393, 14.7 µM (inactive); in the assay on SNB-19, 33 µM (inactive); in the assay on UACC-62, 7.52 µM (inactive); in the assay on OVCAR-3, 16.6 µM (inactive). Further, the GI50 is 19.6 µM (inactive) in the assay with SF-268; 2.72 µM (inactive) with HL-60; 19.4 µM (inactive) in the assay with SK-MEL-2; 14.6 µM (inactive) in the assay with LOX IMVI; 16.9 µM (inactive) in the assay with NCI-H226.
As for `CN(/N=C/c1cccc2cccnc12)c1ccc([N+](=O)[O-])cc1`, the GI50 with NCI-H23 was > 100 µM (inactive); in the assay with K562, > 100 µM (inactive); in the assay on COLO 205, > 100 µM (inactive); with HCT-15 it was over 100 µM; in the assay with ACHN, > 100 µM (inactive); in the assay with SW-620, > 100 µM (inactive). The GI50 in the assay on SNB-75 is 21.4 µM (inactive); with Malme-3M, > 100 µM (inactive); with RXF 393, > 100 µM (inactive); in the assay with SNB-19 it was > 100 µM (inactive); in the assay on UACC-62, > 100 µM (inactive); with OVCAR-3, > 100 µM (inactive). Further, the GI50 with SF-268, with HL-60, in the assay on SK-MEL-2, in the assay with LOX IMVI and in the assay with NCI-H226 was > 100 µM (inactive) throughout.
On to `C(=N\OCc1ccccc1)/c1ncccc1C1OCCO1`, for which the GI50 is > 100 µM (inactive) in the assay on NCI-H23; > 100 µM (inactive) in the assay on K562; > 100 µM (inactive) in the assay on COLO 205; > 100 µM (inactive) in the assay with OVCAR-4; over 100 µM with HCT-15; > 100 µM (inactive) with ACHN. The GI50 with SW-620, in the assay with SNB-75, in the assay with Malme-3M, in the assay with RXF 393, in the assay on SNB-19 and in the assay with UACC-62 was > 100 µM (inactive) each time. Besides, the GI50 with OVCAR-3, in the assay with SF-268, in the assay with HL-60, with SK-MEL-2 and in the assay with LOX IMVI was > 100 µM (inactive) throughout.
As for `Clc1ccc(SCCSCCCCCCCCCCSCCSc2ccc(Cl)cc2)cc1`, the GI50 was > 100 µM (inactive) in the assay on NCI-H23; > 100 µM (inactive) with K562; > 100 µM (inactive) in the assay on COLO 205; over 100 µM in the assay on HCT-15; > 100 µM (inactive) in the assay on ACHN; > 100 µM (inactive) in the assay with SW-620. Also, the GI50 in the assay with SNB-75, in the assay with Malme-3M, in the assay with RXF 393, in the assay on SNB-19, with UACC-62 and in the assay on OVCAR-3 was > 100 µM (inactive) throughout. In addition, the GI50 with SF-268, in the assay on HL-60, in the assay with SK-MEL-2, with LOX IMVI and in the assay with NCI-H226 was > 100 µM (inactive) each time.
